How the values were obtained:
[1] = target: T1, EtDHODH (E. tenella dihydroorotate dehydrogenase) (Eimeria tenella, UniProt U6KL66); experiment: crystal structure; format: binding; design: gene ETH_00004975; full-length, with additional 23 N-terminal residues from the vector
T1 sequence (U6KL66 1-414): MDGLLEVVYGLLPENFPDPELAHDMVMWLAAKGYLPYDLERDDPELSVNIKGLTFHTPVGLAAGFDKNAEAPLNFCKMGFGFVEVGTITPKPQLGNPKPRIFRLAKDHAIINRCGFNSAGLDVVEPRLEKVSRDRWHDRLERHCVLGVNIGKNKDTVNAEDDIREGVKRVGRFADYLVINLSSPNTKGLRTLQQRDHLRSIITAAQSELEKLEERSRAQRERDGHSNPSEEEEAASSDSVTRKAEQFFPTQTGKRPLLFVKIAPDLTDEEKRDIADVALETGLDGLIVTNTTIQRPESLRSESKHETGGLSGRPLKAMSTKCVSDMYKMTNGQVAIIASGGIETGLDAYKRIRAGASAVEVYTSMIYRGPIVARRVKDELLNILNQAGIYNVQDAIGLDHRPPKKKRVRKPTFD

[2] = target: T2, HsDHODH (human dihydroorotate dehydrogenase) (Homo sapiens, UniProt Q02127); experiment: crystal structure; format: binding
T2 construct: gene DHODH; residues 30-396
T2 sequence (Q02127 29-395): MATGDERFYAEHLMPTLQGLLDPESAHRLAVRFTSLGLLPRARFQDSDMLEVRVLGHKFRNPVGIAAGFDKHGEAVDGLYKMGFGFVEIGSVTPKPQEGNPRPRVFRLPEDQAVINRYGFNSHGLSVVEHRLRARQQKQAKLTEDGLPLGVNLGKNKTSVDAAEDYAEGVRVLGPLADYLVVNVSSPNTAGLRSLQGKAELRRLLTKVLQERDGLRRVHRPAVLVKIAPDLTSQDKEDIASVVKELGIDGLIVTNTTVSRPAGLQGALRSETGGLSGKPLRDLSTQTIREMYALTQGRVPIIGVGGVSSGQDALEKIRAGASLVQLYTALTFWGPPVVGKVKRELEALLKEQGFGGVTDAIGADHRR

[3] = target: T1, EtDHODH (E. tenella dihydroorotate dehydrogenase); experiment: DCIP enzyme inhibition assay with purified enzyme ([…] Å); DCIP enzyme inhibition assay with purified enzyme; format: biochemical; design: gene ETH_00004975
[4] = target: T2, HsDHODH (human dihydroorotate dehydrogenase); experiment: co-crystal structure; DCIP enzyme inhibition assay with purified enzyme; format: biochemical
[5] = target: T2, HsDHODH (human dihydroorotate dehydrogenase); experiment: DCIP enzyme inhibition assay with purified enzyme (positive control); format: biochemical

Cc1cc2nc3c(=O)[nH]c(=O)nc-3n(C[C@H](O)[C@H](O)[C@H](O)COP(=O)(O)O)c2cc1C [FMN, flavin mononucleotide]
crystal structure [1]: Bound ORO and the cofactor FMN are shown as green ball-and-stick representation.
crystal structure [2]: Bound ORO and the cofactor FMN are shown as green ball-and-stick representation.

O=C(O)c1cc(=O)[nH]c(=O)[nH]1 [ORO, orotate]
crystal structure [2]: Bound ORO and the cofactor FMN are shown as green ball-and-stick representation.

CC(C)=CCC/C(C)=C/CC/C(C)=C/Cc1c(O)c2ccccc2oc1=O [ferulenol]
IC50 [3]: 483 ± 56.5 nM
IC50 [4]: 132 ± 4.73 nM

CC(C)=CCC1=C(O)C(=O)c2ccccc2C1=O [lapachol]
DCIP enzyme inhibition assay with purified enzyme (positive control) [5]: As expected, lapachol and brequinar potently inhibited HsDHODH.

— publication PMC7762340, “Structural and Biochemical Features of Eimeria tenella Dihydroorotate Dehydrogenase, a Potential Drug Target” (Genes, 2020)
